From PMC11189555, “Aryl amino acetamides prevent Plasmodium falciparum ring development via targeting the lipid-transfer protein PfSTART1” (Nature Communications, 2024)
Values joined by “and” are separate entries in the source; they are usually repeats but may differ in a detail not shown here. Equal entries are not always repeated. Where two headings read alike, the source gives them in different places.

Tested on: SLI-WT parasites
Test: Growth inhibition assay (72 h, LDH activity)
Format: cell-based, Plasmodium falciparum
Details: for Growth inhibition, (1 - av / DMSO) x 100: Fig 2B source data, per biological replicate; for sample/DMSO: START(WT); for EC50: Plasmodium falciparum; for percent growth inhibition relative to DMSO control: START(WT) (SLI-WT)
Experimental: Parasite growth assays with inhibitory compounds were performed as per[11] and are fully described in the Supplementary Information.
Molecular biology and transfection of P. falciparum: Selection Linked Integration […]
To introduce the PfSTART1 mutations, the second half of the coding sequence of pfstart1 (PF3D7_0104200), was recodonised without introns to the bias of Saccharomyces cerevisiae containing either WT, N309K or N330K mutations, and synthesised as gBlock fragments (Integrated DNA Technologies). The first 819 bp of the 5′ native sequence of pfstart1 was amplified from gDNA, to form the 5’ homology block (5’ HB). The 3′ recodonised gBlock fragment comprising of the last 552 bp of either the WT, N309K or N330K pfstart1 to form the ‘recodon’ block (primers listed in Table S2). The 5’ HB and recodon products were sewn together by overlapping PCR to reconstitute the full coding sequence of pfstart1. These blocks (WT/N309K/N330K) were digested with BglII/PstI, and inserted into the parasite vector p-HA-2A-Neo-glmS
1. This plasmid contains an in -frame haemagglutinin (HA) epitope for protein identification and a P2A peptide (2A) to skip continuous peptide bond synthesis of a downstream neomycin resistance gene ( NeoR).
Parasites containing the transfected DNA were selected using 2.5 nM WR99210 (Jacobus). To select for parasites in which single crossover integration had occurred into the pfstart1 locus, parasites were treated with 400 μg/mL G418 (geniticin, Sigma Aldrich) for 14 days: only parasites that have integrated the construct into their genome expressed the neomycin resistance gene together with the PfSTART1 protein.
Parasite lines were cloned using limiting dilution. These clones were then tested on Western Blot (for correct HA-tagging and protein size), and correct integration and sequence were tested by PCR analysis: PCR on the gDNA was conducted using the primers START_5’UTR.F and START_Seq.R (Table S2). […]
Growth inhibition assays. Synchronised ring-stage parasites (0.3-0.6% parasitemia, 2% haematocrit) were grown for 72 h in a serial-dilution of the compound under […]
and compound 4. Note that M-833 was first purchased from MolPort (MolPort -002-267-916) then made in-house at WEHI: the differences observed in EC50s across experiments are attributed to the different batches of M -833. For some experiments, 0, 0.25 or 2.5 mM of glucosamine (GlcN) was also added. Experiments were set up in technical duplicates or triplicates. Following a freeze -thaw cycle, lactate dehydrogenase (LDH) activity was assessed as an indicator of parasite growt h 5. 30 μL of parasite culture was incubated for 30 min in the dark with 75 μL Malstat mixture (0.1 M Tris pH 9.0, 20 g/L lactic acid, pH 7.5, 0.2% Triton-X100, 0.5 g/L acetylpyridine adenine dinucleotide (APAD, Sigma), 200 μg/mL nitroblue tetrazolium (NBT; Sigma), 1 μg/mL phenozine ethosulfate (PES; Sigma)). Absorbance was then measured at 650 nm, transformed using the formula below, plotted against the logarithm of the concentrations, and a non-linear regression (log(inhibitor) vs. response, variable slope) was calculated using GraphPad Prism to assess the half-inhibitory […]
Growth inhibition % = (1 − average(sample)− average(uRBC)) ∗ 100 […]
The DMSO samples were also used to assess growth of parasite in the presence of 0.25 and 2.5 mM GlcN (normalised by DMSO in 0 mM GlcN).
Egress, invasion & recovery assay. To measure egress, invasion and follow up recovery in the presence of different compounds, we adapted the method developed in6, using Hyp1-Nluc parasites7. These parasites episomally express the exported PEXEL protein Hyp1 (PF3D7_0113300) tagged with a NanoLuc luciferase (NLuc) and were selected with 2.5 nM WR99210 (Jacobus). Highly synchronised schizonts were obtained using ML10 (LifeArc) and sorbitol synchronisation, and Percoll-purified (the culture was gently layered over 67% Percoll (Cytiva) in RPMI, and centrifuged for 15 min at 1500 g and the schizont layer was collected and washed). […]

SMILES: Cc1cc(Cl)c(S(=O)(=O)N2CCCC2)cc1OCC(=O)NC1CCCCC1 [M-833]
- Growth inhibition, (1 - av / DMSO) x 100 (SLI-WT, M-833 conc 0.00152416 (unit not given)): 17.8235% and 9.909% and 33.7545%
- Growth inhibition, (1 - av / DMSO) x 100 (SLI-WT, M-833 conc 0.00457247 (unit not given)): 32.5193% and 13.2196% and 48.23%
- Growth inhibition, (1 - av / DMSO) x 100 (SLI-WT, M-833 conc 0.0137174 (unit not given)): 64.9814% and 33.9327% and 65.9574%
- Growth inhibition, (1 - av / DMSO) x 100 (SLI-WT, M-833 conc 0.0411523 (unit not given)): 82.6478% and 70.7748% and 84.2144%
- Growth inhibition, (1 - av / DMSO) x 100 (SLI-WT, M-833 conc 0.123457 (unit not given)): 87.5893% and 87.6138% and 93.5055%
- Growth inhibition, (1 - av / DMSO) x 100 (SLI-WT, M-833 conc 0.37037 (unit not given)): 88.1748% and 91.0017% and 95.8283%
- Growth inhibition, (1 - av / DMSO) x 100 (SLI-WT, M-833 conc 1.11111 (unit not given)): 89.8172% and 92.0512% and 95.1872%
- Growth inhibition, (1 - av / DMSO) x 100 (SLI-WT, M-833 conc 3.33333 (unit not given)): 91.3453% and 92.3754% and 94.862%
- Growth inhibition, (1 - av / DMSO) x 100 (SLI-WT, M-833 conc 10 (unit not given)): 91.9594% and 91.8274% and 95.2708%
- sample/DMSO (M-833 0.000508053 uM, 0 mM GlcN, biological replicates 1-3): 27.927 and 21.9727 and 25
- sample/DMSO (M-833 0.000508053 uM, 0.25 mM GlcN, biological replicates 1-3): 42.2036 and 30.1606 and 32.1527
- sample/DMSO (M-833 0.000508053 uM, 2.5 mM GlcN, biological replicates 1-3): 50.9566 and 35.9886 and 36.6839
- sample/DMSO (M-833 0.00152416 uM, 0 mM GlcN, biological replicates 1-4): 49.0407 and 28.0532 and 35.8147 and 28.6219
- sample/DMSO (M-833 0.00152416 uM, 0.25 mM GlcN, biological replicates 1-4): 60.3487 and 47.5652 and 43.8309
- sample/DMSO (M-833 0.00152416 uM, 2.5 mM GlcN, biological replicates 1-4): 64.731 and 51.7963 and 44.8107 and 40.64
- sample/DMSO (M-833 0.00457247 uM, 0 mM GlcN, biological replicates 1-4): 71.0997 and 42.5489 and 51.2149 and 44.2813
- sample/DMSO (M-833 0.00457247 uM, 0.25 mM GlcN, biological replicates 1-4): 74.8396 and 65.6157 and 57.2049
- sample/DMSO (M-833 0.00457247 uM, 2.5 mM GlcN, biological replicates 1-4): 78.1904 and 72.0515 and 57.0638 and 53.24
- sample/DMSO (M-833 0.0137174 uM, 0 mM GlcN, biological replicates 1-4): 83.6593 and 61.2338 and 74.7499 and 69.6413
- sample/DMSO (M-833 0.0137174 uM, 0.25 mM GlcN, biological replicates 1-4): 88.8842 and 81.3121 and 70.4954
- sample/DMSO (M-833 0.0137174 uM, 2.5 mM GlcN, biological replicates 1-4): 87.5985 and 84.0064 and 69.7195 and 63.44
- sample/DMSO (M-833 0.0411523 uM, 0 mM GlcN, biological replicates 1-4): 94.394 and 79.7192 and 91.2101 and 80.3728
- sample/DMSO (M-833 0.0411523 uM, 0.25 mM GlcN, biological replicates 1-4): 94.2399 and 92.19 and 82.349
- sample/DMSO (M-833 0.0411523 uM, 2.5 mM GlcN, biological replicates 1-4): 91.9649 and 89.5193 and 74.7012 and 67.08
- sample/DMSO (M-833 0.123457 uM, 0 mM GlcN, biological replicates 1-4): 97.6883 and 88.7403 and 94.7713 and 86.5433
- sample/DMSO (M-833 0.123457 uM, 0.25 mM GlcN, biological replicates 1-4): 95.7043 and 95.071 and 88.6476
- sample/DMSO (M-833 0.123457 uM, 2.5 mM GlcN, biological replicates 1-4): 92.7752 and 92.3191 and 78.8024 and 71.4
- EC50 (72 h, Fig 2B, SLI-WT, 72 h, n = 3, unit only in x-axis title, read-out: EC50 (95% confidence interval)): 13.4 nM
- EC50 (Fig 3C, SLI-WT, 0 mM GlcN, n = 4, unit on plot axis, read-out: EC50 M-833 (95% confidence interval)): 5.9 nM
- EC50 (Fig 3C, SLI-WT, 0.25 mM GlcN, n = 4, unit on plot axis, read-out: EC50 M-833 (95% confidence interval)): 3.1 nM
- EC50 (Fig 3C, SLI-WT, 2.5 mM GlcN, n = 4, unit on plot axis, read-out: EC50 M-833 (95% confidence interval)): 2.6 nM
- fold more sensitive compared to the parental 3D7 parasites (SLI-WT, Fig 2B): 7 fold
- fold reduction of EC50 on addition of 2.5 mM GlcN (SLI-WT, PfSTART1 knock-down): 2.3 fold
- percent growth inhibition relative to DMSO control (0 mM GlcN, M-833 0.37037 uM, biological replicates 1-4): 99.0454 and 90.3879 and 95.7242 and 88.5343
- percent growth inhibition relative to DMSO control (0 mM GlcN, M-833 1.11111 uM, biological replicates 1-4): 99.2981 and 91.8212 and 96.4269 and 89.5933
- percent growth inhibition relative to DMSO control (0 mM GlcN, M-833 3.33333 uM, biological replicates 1-4): 98.5962 and 92.1167 and 96.403 and 89.8334
- percent growth inhibition relative to DMSO control (0 mM GlcN, M-833 10 uM, biological replicates 1-4): 99.0547 and 92.0133 and 96.7127 and 88.7461
- percent growth inhibition relative to DMSO control (0.25 mM GlcN, M-833 0.37037 uM, biological replicates 1-4): 96.4435 and 95.9038 and 89.675
- percent growth inhibition relative to DMSO control (0.25 mM GlcN, M-833 1.11111 uM, biological replicates 1-4): 96.5272 and 97.1616 and 91.872
- percent growth inhibition relative to DMSO control (0.25 mM GlcN, M-833 3.33333 uM, biological replicates 1-4): 96.834 and 96.2182 and 91.3374
- percent growth inhibition relative to DMSO control (0.25 mM GlcN, M-833 10 uM, biological replicates 1-4): 97.0851 and 96.6856 and 92.1644
- percent growth inhibition relative to DMSO control (2.5 mM GlcN, M-833 0.37037 uM, biological replicates 1-4): 94.0131 and 93.8677 and 81.9097 and 71.68
- percent growth inhibition relative to DMSO control (2.5 mM GlcN, M-833 1.11111 uM, biological replicates 1-4): 94.8008 and 94.5862 and 84.2496 and 73.4
- percent growth inhibition relative to DMSO control (2.5 mM GlcN, M-833 3.33333 uM, biological replicates 1-4): 94.7333 and 94.0783 and 84.1867 and 73.32
- percent growth inhibition relative to DMSO control (2.5 mM GlcN, M-833 10 uM, biological replicates 1-4): 95.2735 and 94.4252 and 87.0927 and 74.36
